Reference: US8067589B2, “Heterocyclic compounds useful in treating diseases and conditions” (Pfizer Inc, priority 2007, dated 2011)

target: human recombinant H-PGDS (Homo sapiens, UniProt O60760); assay: Fluoresecence Intensity h-PGDSTBA Enzyme Assay; details: IC50, 5.0 μM PGH2, 2.5 mM L-Glutathione, 10 min preincubation, 4-parameter fit, highest inhibitor concentration typically 1 μM
Sequence (O60760 whole entry): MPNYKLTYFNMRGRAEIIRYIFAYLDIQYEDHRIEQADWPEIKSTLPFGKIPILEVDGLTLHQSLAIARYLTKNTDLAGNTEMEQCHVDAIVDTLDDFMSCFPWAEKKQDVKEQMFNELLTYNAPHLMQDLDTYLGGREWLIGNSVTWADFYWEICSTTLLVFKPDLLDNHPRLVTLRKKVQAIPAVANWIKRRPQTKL

**Q.** Which IC50 does the source give for O=C(NC1CCN(c2ncc3c(n2)CCOC3)C1)c1cnc(-c2cccc(F)c2)nc1 (single isomer, unassigned) [Example 81b, N-(1-(7,8-Dihydro-5H-pyrano[4,3-d]pyrimidin-2-yl)pyrrolidin-3-yl)-2-(3-fluorophenyl)pyrimidine-5-carboxamide] here?
**A.** 0.46 nM

**Q.** How did the IC50 turn out when N#Cc1cc(Cl)ccc1OCC(c1ccccc1)N1CCC(NC(=O)c2cnc(-c3cccc(F)c3)nc2)CC1 (stereo not shown) [Example 31, N-{1-[2-(4-Cchloro-2-cyanophenoxy)-1-phenylethyl]piperidin-4-yl}-2-(3-fluorophenyl)pyrimidine-5-carboxamide] was run?
**A.** 7.68 nM

**Q.** CCCN1CCC(NC(=O)c2cnc(-c3ccccc3)nc2)CC1 [Example 10, 2-Phenyl-N-(1-propylpiperidin-4-yl) pyrimidine-5-carboxamide] was tested. Which IC50 did it give?
**A.** 2 nM

**Q.** With O=C(NC1CCN(c2ncc3c(n2)CCOC3)CC1)c1cnc(-c2cccc(F)c2)nc1 [Example 76, N-[1-(7,8-Dihydro-5H-pyrano[4,3-d]pyrimidin-2-yl)piperidin-4-yl]-2-(3-fluorophenyl)pyrimidine-5-carboxamide] as the compound, how does the IC50 read?
**A.** 0.595 nM

**Q.** With CCCC(=O)N1CCC(NC(=O)c2cnc(-c3ccccc3)nc2C)CC1 [Example 5, N-(1-Butyrylpiperidin-4-yl)-4-methyl-2-phenylpyrimidine-5-carboxamide] as the compound, how does the IC50 read?
**A.** 8.02 nM

**Q.** For O=C(NC1CCN(c2cccnn2)CC1)c1cnc(-c2cccc(F)c2)nc1 [Example 26, 2-(3-Fluorophenyl)-N-(1-pyridazin-3-ylpiperidin-4-yl)pyrimidine-5-carboxamide], which IC50 is on record?
**A.** 0.136 nM

**Q.** Which IC50 does the source give for Cc1nc(-c2ccccc2)ncc1C(=O)NC1CCN(Cc2ccccc2)CC1 [Example 2, N-(1-Benzylpiperidin-4-yl)-4-methyl-2-phenylpyrimidine-5-carboxamide] here?
**A.** 67.4 nM

**Q.** Which IC50 does the source give for CC(C)(C)OC(=O)N1C[C@H](O)[C@H](NC(=O)c2cnc(-c3cccc(F)c3)nc2)C1 (relative stereo) [Example 94, cis-tert-Butyl 3-(2-(3-fluorophenyl)pyrimidine-5-carboxamido)-4-hydroxypyrrolidine-1-carboxylate] here?
**A.** 1.41 nM

**Q.** Which IC50 does the source give for O=C(NC1CCN(c2ncc3c(n2)CCC3)C1)c1cnc(-c2cccc(F)c2)nc1 (stereo not shown) [Example 89, N-[1-(6,7-Dihydro-5H-cyclopenta[d]pyrimidin-2-yl)pyrrolidin-3-yl]-2-(3-fluorophenyl)pyrimidine-5-carboxamide] here?
**A.** 0.147 nM

**Q.** For Cc1nc(N2CCC(NC(=O)c3cnc(-c4cccc(F)c4)nc3)C2)ncc1S(C)(=O)=O (stereo not shown) [Example 80, 2-(3-Fluorophenyl)-N-{1-[4-methyl-5-(methylsulfonyl)pyrimidin-2-yl]pyrrolidin-3-yl}pyrimidine-5-carboxamide], which IC50 is on record?
**A.** 0.211 nM

**Q.** For Cc1nc(-c2ccccc2)ncc1C(=O)NC1CCN(Cc2ccccn2)CC1 [Example 3, 4-Methyl-2-phenyl-N-[1-(pyridin-2-ylmethyl)piperidin-4-yl]pyrimidine-5-carboxamide], which IC50 is on record?
**A.** 14.1 nM

**Q.** For CC(C)N1CCC(NC(=O)c2cnc(-c3ccccc3)nc2N)CC1 [Example 16, 4-Amino-N-(1-isopropylpiperidin-4-yl)-2-phenyl-pyrimidine-5-carboxamide], which IC50 is on record?
**A.** 219 nM

**Q.** N#Cc1ccccc1C(=O)c1cccnc1N1C[C@H](O)[C@H](NC(=O)c2cnc(-c3cccc(F)c3)nc2)C1 (relative stereo) [Example 97, Cis-N-{1-[3-(2-Cyanobenzoyl)pyridin-2-yl]-4-hydroxypyrrolidin-3-yl}-2-(3-fluorophenyl)pyrimidine-5-carboxamide] was tested. Which IC50 did it give?
**A.** 3.83 nM

**Q.** How did the IC50 turn out when O=C(NC1CCN(CC2CCCCC2)CC1)c1cnc(-c2cccc(F)c2)nc1 [Example 52, N-[1-(Cyclohexylmethyl)piperidin-4-yl]-2-(3-fluorophenyl)pyrimidine-5-carboxamide] was run?
**A.** 0.457 nM

**Q.** Which IC50 does the source give for CC(C)(C)OC(=O)N1CCC(NC(=O)c2cnc(-c3ccccc3)nc2O)CC1 [Example 20, tert-Butyl 4-{[(4-hydroxy-2-phenyl-pyrimidin-5-yl)carbonyl]amino}piperidine-1-carboxylate] here?
**A.** ≥ 1000 nM

**Q.** For COc1cccc(OC)c1CN1CCC(NC(=O)c2cnc(-c3ccccc3)nc2O)CC1 [Example 23, N-[1-(2,6-Dimethoxybenzyl)piperidin-4-yl]-4-hydroxy-2-phenyl-pyrimidine-5-carboxamide], which IC50 is on record?
**A.** ≥ 1000 nM

**Q.** How did the IC50 turn out when O=C(NC1CCN(C(COc2ccc(C(F)(F)F)cc2)c2ccccc2)CC1)c1cnc(-c2cccc(F)c2)nc1 (stereo not shown) [Example 48, 2-(3-Fluorophenyl)-N-(1-{1-phenyl-2-[4-(trifluoromethyl)phenoxy]ethyl}piperidin-4-yl)pyrimidine-5-carboxamide] was run?
**A.** 29.6 nM

**Q.** For CN1CC[C@@H](NC(=O)c2cnc(-c3cccc(F)c3)nc2)[C@@H](Cc2ccccc2)C1 [Example 72, N-[(3S,4R)-3-Benzyl-1-methylpiperidin-4-yl]-2-(3-fluorophenyl)pyrimidine-5-carboxamide], which IC50 is on record?
**A.** 30 nM

**Q.** For Cc1ccc(OCC(c2ccccc2)N2CCC(NC(=O)c3cnc(-c4cccc(F)c4)nc3)CC2)cc1C (stereo not shown) [Example 56, N-{1-[2-(3,4-Dimethylphenoxy)-1-phenylethyl]piperidin-4-yl}-2-(3-fluorophenyl)pyrimidine-5-carboxamide], which IC50 is on record?
**A.** 14.2 nM

**Q.** CN1CCc2nc(N3CCC(NC(=O)c4cnc(-c5cccc(F)c5)nc4)C3)ncc2C1 (stereo not shown) [Example 78, 2-(3-Fluorophenyl)-N-[1-(6-methyl-5,6,7,8-tetrahydropyrido[4,3-d]pyrimidin-2-yl)pyrrolidin-3-yl]pyrimidine-5-carboxamide] was tested. Which IC50 did it give?
**A.** 0.379 nM

**Q.** How did the IC50 turn out when O=C(NC1CCN(Cc2ccc(F)cc2)CC1)c1cnc(-c2cccc(F)c2)nc1 [Example 63, N-[1-(4-Fluorobenzyl)piperidin-4-yl]-2-(3-fluorophenyl)pyrimidine-5-carboxamide] was run?
**A.** 0.509 nM

**Q.** Which IC50 does the source give for CC(C)N1CCC(NC(=O)c2cnc(-c3ccccc3)nc2)CC1 [Example 13, N-(1-Isopropylpiperidin-4-yl)-2-phenyl-pyrimidine-5-carboxamide] here?
**A.** 6.34 nM

**Q.** Which IC50 does the source give for Cc1nc(N2CCC(NC(=O)c3cnc(-c4cccc(F)c4)nc3)CC2)[nH]c(=O)c1CCO [Example 60, 2-(3-Fluorophenyl)-N-{1-[5-(2-hydroxyethyl)-4-methyl-6-oxo-1,6-dihydropyrimidin-2-yl]piperidin-4-yl}pyrimidine-5-carboxamide] here?
**A.** 1.02 nM

**Q.** How did the IC50 turn out when O=C(NC1CCN(CC(F)(F)F)CC1)c1cnc(-c2ccccc2)nc1O [Example 22, 4-Hydroxy-2-phenyl-N-[1-(2,2,2-trifluoroethyl)piperidin-4-yl] pyrimidine-5-carboxamide] was run?
**A.** ≥ 1000 nM

**Q.** Which IC50 does the source give for O=C(NC1CCN(C(COc2cc(F)ccc2F)c2ccccc2)CC1)c1cnc(-c2cccc(F)c2)nc1 (stereo not shown) [Example 51, N-{1-[2-(2,5-Difluorophenoxy)-1-phenylethyl]piperidin-4-yl}-2-(3-fluorophenyl)pyrimidine-5-carboxamide] here?
**A.** 10 nM

**Q.** Which IC50 does the source give for O=C(NC1CCN(C(COc2ccc(F)cc2)c2ccccc2)CC1)c1cnc(-c2cccc(F)c2)nc1 (stereo not shown) [Example 44, N-{1-[2-(4-Fluorophenoxy)-1-phenylethyl]piperidin-4-yl}-2-(3-fluorophenyl)pyrimidine-5-carboxamide] here?
**A.** 16.2 nM

**Q.** With O=C(NC1CCN(C(COc2cc(F)c(F)c(F)c2)c2ccccc2)CC1)c1cnc(-c2cccc(F)c2)nc1 (stereo not shown) [Example 50, 2-(3-Fluorophenyl)-N-{1-[1-phenyl-2-(3,4,5-trifluorophenoxy)ethyl]piperidin-4-yl}pyrimidine-5-carboxamide] as the compound, how does the IC50 read?
**A.** 9.55 nM

**Q.** With N#Cc1ccc(C(F)(F)F)nc1N1C[C@H](O)[C@H](NC(=O)c2cnc(-c3cccc(F)c3)nc2)C1 (relative stereo) [Example 100, Cis-N-{1-[3-Cyano-6-(trifluoromethyl)pyridin-2-yl]-4-hydroxypyrrolidin-3-yl}-2-(3-fluorophenyl)pyrimidine-5-carboxamide] as the compound, how does the IC50 read?
**A.** 4.47 nM

**Q.** Cc1cc(OCC(c2ccccc2)N2CCC(NC(=O)c3cnc(-c4cccc(F)c4)nc3)CC2)ccc1F (stereo not shown) [Example 45, N-{1-[2-(4-Fluoro-3-methylphenoxy)-1-phenylethyl]piperidin-4-yl}-2-(3-fluorophenyl)pyrimidine-5-carboxamide] was tested. Which IC50 did it give?
**A.** 14.2 nM

**Q.** Which IC50 does the source give for O=C(NC1CCN(C(COc2c(F)cc(F)cc2F)c2ccccc2)CC1)c1cnc(-c2cccc(F)c2)nc1 (stereo not shown) [Example 32, 2-(3-Fluorophenyl)-N-{1-[1-phenyl-2-(2,4,6-trifluorophenoxy)ethyl]piperidin-4-yl}pyrimidine-5-carboxamide] here?
**A.** 8.91 nM

**Q.** Which IC50 does the source give for O=C(NC1CCN(C(COc2ccc(F)c(F)c2F)c2ccccc2)CC1)c1cnc(-c2cccc(F)c2)nc1 (stereo not shown) [Example 55, 2-(3-Fluorophenyl)-N-{1-[1-phenyl-2-(2,3,4-trifluorophenoxy)ethyl]piperidin-4-yl}pyrimidine-5-carboxamide] here?
**A.** 45.4 nM

**Q.** How did the IC50 turn out when CCOC(=O)N1CCC(NC(=O)c2cnc(-c3cccc(F)c3)nc2)C1 (stereo not shown) [Example 82, Ethyl 3-({[2-(3-fluorophenyl)pyrimidin-5-yl]carbonyl}amino)pyrrolidine-1-carboxylate] was run?
**A.** 0.658 nM

**Q.** With O=C(N[C@@H]1CCN(Cc2ccccc2)C1)c1cnc(-c2cccc(F)c2)nc1 [Example 79, N-[(3R)-1-Benzylpyrrolidin-3-yl]-2-(3-fluorophenyl)pyrimidine-5-carboxamide] as the compound, how does the IC50 read?
**A.** 0.346 nM

**Q.** With O=C(NC1CCN(Cc2ccccn2)CC1)c1cnc(-c2cccc(CO)c2)nc1 [Example 159, 2-[3-(Hydroxymethyl)phenyl]-N-[1-(pyridin-2-ylmethyl)piperidin-4-yl]pyrimidine-5-carboxamide] as the compound, how does the IC50 read?
**A.** 2040 nM

**Q.** Which IC50 does the source give for Cc1ccccc1CN1CCC(NC(=O)c2cnc(-c3cccc(F)c3)nc2)CC1 [Example 62, 2-(3-Fluorophenyl)-N-[1-(2-methylbenzyl)piperidin-4-yl]pyrimidine-5-carboxamide] here?
**A.** 0.489 nM

**Q.** CS(=O)(=O)Nc1cccc(-c2ncc(C(=O)NC3CCN(Cc4ccccn4)CC3)cn2)c1 [Example 176, 2-{3-[(Methylsulfonyl)amino]phenyl}-N-[1-(pyridin-2-ylmethyl)piperidin-4-yl]pyrimidine-5-carboxamide] was tested. Which IC50 did it give?
**A.** 2700 nM

**Q.** Which IC50 does the source give for O=C(NC1CCN(Cc2c(F)ccc(F)c2Cl)C1=O)c1cnc(-c2cccc(F)c2)nc1 (stereo not shown) [Example 85, N-[1-(2-Chloro-3,6-difluorobenzyl)-2-oxopyrrolidin-3-yl]-2-(3-fluorophenyl)pyrimidine-5-carboxamide] here?
**A.** 2.34 nM
